# Experimental data reported in US20170209544A1, “A PEPTIDE THERAPY TO COUNTERACT INSULIN RESISTANCE AND TYPE 2 DIABETES” (The Regents of the University of California, priority 2014, published 2017).
# Where no end group is shown, it is not given here.
# How the values were obtained:
# [1] = system: Chga-KO mice; assay: Glucose-stimulated insulin secretion during GTT in Chga-KO mice; type: in vivo
# Source text: As shown in FIGS. 4A-4D, to compare the effects of PSTv1 (the peptide with SEQ ID NO. 1) vs. PST on glucose-stimulated insulin secretion (GSIS), the inventors analyzed plasma insulin levels in Chga-KO mice during GTT experiments.
# [2] = system: 3T3-L1 adipocytes; assay: Insulin-stimulated glucose uptake in adipocytes; type: cell-based; details: 3T3-L1 adipocytes in culture; without any PST variant present
# Source text: Mutant PST peptides were synthesized and screened. The peptides were synthesized as various deletion peptides of PST. Native PST (SEQ ID NO. 2) inhibited insulin-stimulated glucose uptake and leptin production in adipocytes. The inventors tested various deletion mutant PST peptides whether one or more of them would compete and prevent native PST action in adipocytes.
# [3] = system: KO-DIO mice; assay: Immunoblot of signaling in PST-treated KO-DIO mice; type: in vivo
# Experimental: Tissues were homogenized in a buffer containing phosphatase and protease inhibitors. Homogenates were subjected to SDS-PAGE and immunoblotted. Primary antibodies for phosphorylated and total Akt, AMPK, FoxO1, and JNK were from Cell Signaling Technology (Beverly, Mass.). Actin and Srebp-1 antibodies were from Santa Cruz Biotechnology (CA).
# Phosphorylation and activation of Akt, an important component of the insulin signaling pathway was analyzed by Western blot. […] Weight-matched saline-treated WT-DIO or KO-DIO and PST-treated KO-DIO mice were fasted for 12 hrs, injected with insulin (0.4 mU/g BW, IP) for 10 min and sacrificed for tissue collection. Tissues were homogenized, lysates were subjected to SDS-PAGE and immunoblotted for p-Akt in muscle (14A, n=4), WAT (14B, n=4) and liver (14C, n=4) and for p-AMPK in muscle (14D), WAT (14E) and liver (14F). “*” Denotes comparison between the indicated groups. “*”: P<0.05, “**”: p<0.01, “***”: p<0.001.
# The insulin-stimulated phosphorylation of FoxO1, downstream of Akt (82 kDa pFoxO1 and 95 kDa pFoxO1), in KO-DIO mice was higher in WAT and the liver than corresponding insulin-treated WT-DIO tissues (FIGS. 16A and 16B). Weight-matched saline-treated WT-DIO or KO-DIO and PST-treated KO-DIO mice were fasted for 12 hrs, injected with insulin (0.4 mU/g BW, IP) for 10 min and sacrificed for tissue collection. Tissues were homogenized, lysates were subjected to SDS-PAGE and subsequently immunoblotted to detect phospho-p95-FoxO1 and phospho-p82-FoxO1 signals in WAT (16A, n=4) and phospho-p82-FoxO1 signals in liver (16B, n=4), phospho-p54-Jnk and phospho-p46-Jnk signals in WAT (16C, n=4) and liver (16D, n=4), and p125-Srebp-1 and p-68-Srebp-1 (mature) signals in liver (16E, n=4). “*” Denotes comparison between the indicated groups. “*”: P<0.05, “**”: p<0.01, “***”: p<0.001.
# [4] = system: WT-NCD mice; assay: IP-ITT in WT-NCD mice; type: in vivo; details: chronic PST 5 μg/g BW for 15 days; WT mice on NCD
# Experimental: For glucose tolerance tests (GTT), glucose (1 mg/g) was injected intraperitoneally (IP-GTT) (at time zero) or gavaged orally (O-GTT) after a 12-hours fast. Tail-vein glucose levels were measured at −30, 0, 15, 30, 60, 90, and 120 minutes. For insulin tolerance tests (ITT), insulin (0.4 mU/g) was injected intraperitoneally and blood glucose levels were measured at the indicated time points. Chronic PST (5 μg/g/day) and PSTv1 (10 μg/day) treatments were carried out for 15 days. For acute treatment, either peptides or saline were injected 30 minutes before glucose or insulin injection. Synergy Software Kaleidagraph Version 4.0 calculated the area under the curve (AUC) for each line curve.
# Treatment with the PST variant PSTv1 improves, whereas PST worsens, glucose tolerance and insulin sensitivity in WT-DIO and WT-NCD mice. WT-DIO mice were treated with saline or PSTv1 (10 μg/g BW/day) for 15 days. Weight-matched DIO mice were fasted for 12 hrs and subjected to IP-GTT (2-way ANOVA: Treatment, p<0.0001; Time, p<0.0001; Interaction, p=0.17, n=6, as shown in FIG. 13A) and IP-ITT (2-way ANOVA: Treatment, p<0.0001; Time, p<0.0001; Interaction, p=0.62 n=9, as shown in FIG. 13C) and AUCs for glucose excursions were determined (as shown in FIGS. 13B and 13D). […]
substance,measurement,setting,value
"PEGKGEQEHSQQKEEEEEMAVVPQGLFRG-amide (PEGKGEQEHSQQKEEEEEMAVVPQGLFRG-NH2) [PST, Wild-type human pancreastatin, a chromogranin A derived peptide]",glucose-stimulated insulin secretion (GSIS),[1],lowers GSIS
same,plasma glucose concentration,[1],without lowering plasma glucose concentration
same,inhibition of insulin-stimulated glucose uptake,[2],35%
same,FoxO1 signaling in WAT,[3]; WAT,modulated
same,increased insulin-stimulated pFoxO1-p95 signals in WAT,[3]; WAT,reversed
same,"hepatic AMPK, FoxO1 or Jnk signaling",[3]; liver,did not alter
same,Srebp-1c p68 to p125 ratio,"[3]; liver, compared to untreated KO-DIO",decreased
same,AMPK signaling,"[3]; muscle, WAT and liver",did not change the overall pattern
same,stimulation of Akt phosphorylation by insulin,"[3]; muscle, WAT and liver",completely inhibited
same,insulin sensitivity (IP-ITT),[4],induced insulin resistance
